# No end group written: not given here.
# Legend:
# CT26 colon cancer line = assay: CT26 colon cancer tumor model, antitumor vaccination with peptide AH1; type: in vivo, BALB/c mice; settings: for protection from tumor: n=11
# Description: The tumor model used for this assay has been a model based on the CT26 colon cancer line, described in a previous work of the laboratory of the inventors (Casares et al, 2001. Eur J Immunol 31:1780-9; Casares et al., 2003. J Immunol 171:5931-9), since the inventors had previously shown that, in this model, Treg lymphocytes have an immunosuppressive effect favoring tumor growth (Casares et al., 2003, mentioned above).
# The synthetic peptide (SEQ ID NO: 8) was used as a vaccine antigen, which peptide contains a cytotoxic T determinant for the CT26 line (Huang, A. Y. et al, Proc Natl Acad Sci USA, 1996. 93:9730-9735) and the immunization of which delays the tumor growth to a certain extent, without eliminating it due to the presence of Treg lymphocytes (Casares et al., 2003, mentioned above).
# Briefly, groups of 6 six-week old BALB/c mice (Charles River) were immunized with peptide AH1 (SEQ ID NO: 8) as described in Casares et al., 2001, mentioned above, in the presence or absence of peptide P60 (SEQ ID NO: 1). Ten days after the immunization, the mice were subcutaneously injected with 5×10^5 CT26 cells, and the tumor evolution was measured.
# scurfin = target: T1, scurfin (Homo sapiens, UniProt Q9BZS1); assay: Surface plasmon resonance (SPR) analysis of peptide binding to immobilized scurfin; settings: peptide 10 μM, scurfin immobilized on CM5 chip, compared with irrelevant control peptide (SEQ ID NO: 6)
# T1 construct: GST (glutathione-S-transferase); made in house; host or cells: Escherichia coli BL21
# T1 sequence (Q9BZS1 1-431): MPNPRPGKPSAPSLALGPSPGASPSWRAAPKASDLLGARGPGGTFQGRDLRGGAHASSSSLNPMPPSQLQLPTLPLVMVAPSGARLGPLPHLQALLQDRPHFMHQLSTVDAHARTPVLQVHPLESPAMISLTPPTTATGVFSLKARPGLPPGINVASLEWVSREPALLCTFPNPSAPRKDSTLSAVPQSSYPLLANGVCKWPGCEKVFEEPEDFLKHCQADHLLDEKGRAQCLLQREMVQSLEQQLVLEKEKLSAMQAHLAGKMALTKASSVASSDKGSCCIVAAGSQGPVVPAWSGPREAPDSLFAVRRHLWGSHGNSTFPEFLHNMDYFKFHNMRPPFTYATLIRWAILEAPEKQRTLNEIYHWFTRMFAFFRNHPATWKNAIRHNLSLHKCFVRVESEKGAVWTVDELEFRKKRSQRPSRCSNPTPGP
# Description: The capacity of peptide P60 (SEQ ID NO: 1) to bind to scurfin was verified by means of the biomolecular interaction surface plasmon resonance (SPR) using the Biosensor BIAcore X (BIAcore, AB, Uppsala, Sweden). Scurfin, produced in E. coli and purified by affinity using GSTrap columns (Amersham, Pharmacia), was covalently immobilized on the surface of the flow cell 2 (FC2) of a CM5 chip (Sensor Chip CM Ref 116Br-1000-14, BIAcore, General Electrics), as described in De Crescenzo et al. (JBC 2001, Vol 276; 29632-29643). Flow cell 1 (FC1), on the surface of which scurfin is not immobilized, was used as a reference reflow cell. The solutions of each peptide (10 μM) were injected three times in a 10 mM Hepes buffer, 150 mM NaCl, pH 7.4 at a flow of 30 μl/min. The binding curves were processed by means of subtracting the response in FC1 from that obtained in FC2. The response in equilibrium was compared between peptide P60 (SEQ ID NO: 1) and an irrelevant control peptide of the same size (length), specifically, the peptide the amino acid sequence of which is shown in SEQ ID NO: 6, corresponding to amino acids 123-137 of the human CD81 receptor. Each response was multiplied by a mass correction factor: MW(P60)/MW(P), wherein MW(P60) is the molecular weight of peptide P60 (SEQ ID NO: 1) and MW(P) is that of the control peptide.
# For the purpose of evaluating the importance of the amino acids placed at the amino-terminal and carboxyl-terminal ends of peptide P60 (SEQ ID NO: 1), truncated forms of said peptide P60 (SEQ ID NO: 1) were chemically synthesized as has been mentioned above, and the capacity of said truncated forms to bind to scurfin was assayed by means of SPR, according to the protocol previously described in section 1.3.
# Likewise, the capacity of said peptides (SEQ ID NO: 2, SEQ ID NO: 3 and SEQ ID NO: 4) to bind to scurfin was assayed by means of SPR in the previously mentioned conditions.
# [1] = tested on: Karpas 299 human cell line; assay: Mixed lymphocyte reaction (MLR) of PBMCs from 2 donors with Karpas 299 cells, IFN-γ ELISA; type: cell-based
# Protocol: After verifying and confirming its profile, in vitro assays were carried out using the Karpas 299 human cell line (ACC-31, DSMZ, Germany), derived from a human lymphoma with a regulatory T cell [Treg lymphocytes] profile (Wolke et al Int J Mol. Med. 2006 February; 17(2):275-8), the need to isolate CD4+CD25+ cells is thus prevented.
# To evaluate the effect of peptide P60 (SEQ ID NO: 1) on the immunosuppressive activity of the Karpas 299 cell line, a “mixed lymphocyte reaction” (MLR) assay was carried out using peripheral blood mononuclear cells (PBMCs) from 2 donors in the presence or absence of the Karpas 299 cell line. This assay (MLR) is based on co-culturing lymphocytes of a different origin, with different histocompatibilities, which will recognize one another as foreign. This reaction makes lymphocytes proliferate, secreting cytokines. For this assay, 100,000 cells of each donor (positive MLR control) were cultured in a 96-well plate, alone or in the presence of 10,000 cells of the Karpas 299 cell line.
# After 48 hours, the supernatants were extracted to measure interferon-gamma (IFN-γ) by means of a commercial ELISA (Ref 555138, Pharmingen, San Diego, Calif., United States). […] In this assay of inhibition of the MLR due to the presence of the Karpas 299 cell line, the capacity of peptide P60 (SEQ ID NO: 1) to restore the production of IFN-γ due to the MLR was analyzed.
# murine Treg lymphocytes [2] = assay: Activation of BALB/c mouse splenocytes with anti-CD3 antibodies with murine Treg lymphocytes, IFN-γ; type: cell-based; settings: 100 μM
# Protocol: Firstly, assays of activation of BALB/c mouse splenocytes (Charles River) in the presence of anti-CD3 antibodies (Ref 553057, BD Biosciences) were carried out.
# murine Treg lymphocytes [3] = assay: Murine MLR (BALB/c effector lymphocytes with C57BL/6 dendritic cells) with BALB/c Treg lymphocytes, tritiated thymidine incorporation; type: cell-based, mouse; settings: 100 μM
# Protocol: Secondly, mixed lymphocyte reaction (MLR) assays were carried out. The effector lymphocytes isolated from BALB/c mice (10^5 cells/well) were co-cultured with purified dendritic cells from C57BL/6 mice (Charles River), in the presence or absence of BALB/c Treg lymphocytes and in the presence or absence of peptide P60 (SEQ ID NO: 1) (100 μM). The measurement of the cell proliferation was carreid out by means of a conventional tritiated thymidine incorporation assay as has been previously described.
# murine Treg lymphocytes [4] = assay: Co-culture of OT-1 transgenic mouse effector lymphocytes with dendritic cells, SIINFEKL antigen and Treg lymphocytes, IFN-γ ELISA; type: cell-based; settings: 100 μM, SIINFEKL 10 μg/ml, OT-1 effector lymphocytes
# Protocol: Thirdly, the effect of peptide P60 (SEQ ID NO: 1) was measured in an assay based on co-culturing splenocytes from OT-1 transgenic mice (the T lymphocytes of which have a specific T cell receptor for the peptide SIINFEKL (SEQ ID NO: 7) of ovalbumin, which were kindly provided by Dr Melero, CIMA Pamplona) with Treg lymphocytes in the presence of antigen (SEQ ID NO: 7) and in the presence or absence of Treg lymphocytes. […] The effector lymphocytes isolated from OT-1 transgenic mice (10^5 cells/well) were co-cultured with dendritic cells from C57BL/6 mice and the peptide SIINFEKL (SEQ ID NO: 7) (10 μg/ml), in the presence or absence of 2×10^4 BALB/cregulatory T cells and in the presence or absence of peptide P60 (SEQ ID NO: 1) (100 μM).
# human Treg lymphocytes [5] = assay: MLR of PBMCs from 2 donors with human Treg lymphocytes, tritiated thymidine incorporation; type: cell-based; settings: 100 μM, 3 days of culture
# Protocol: To carry out the assay based on a mixed lymphocyte reaction (MLR), such as that shown in Example 2, peripheral blood mononuclear cells (PBMCs) from 2 donors were mixed together with CD4+CD25+ Treg cells (Treg lymphocytes) purified from one of them, by means of using a commercial kit (Ref 130091072, Miltenyi Biotec, Bergisch Gladbach, Germany) following the instructions of the manufacturer. After the purification, the cells were analyzed by flow cytometry, a purity of approximately 90% being obtained in all the assays. This MLR assay was carried out incubating 10^5 PBMC cells from each donor and 2×10^4 Treg lymphocytes in the presence or absence of peptide P60 (SEQ ID NO: 1), for the purpose of assaying its capacity to block the inhibitory effect of human Treg lymphocytes. After 3 days of culture, 0.5 μCi/well of tritiated thymidine (Amersham, Pharmacia) and after 16 hours, the plates were harvested using a harvester (Filtermate 96 harvester; Packard Instrument, Meriden, Conn.) and the radioactivity incorporated to the cell DNA was counted (as a measurement of the cell proliferation) by means of a scintillation counter (Topcount; Packard Instrument).
# [6] = tested on: inhibition of the activation of transcription factor NF-κB by scurfin; assay: NF-κB luciferase reporter in 293 cells transfected with pcDNA-Foxp3; type: cell-based; settings: 100 μM, 24 hours
# Description: It has been described that the presence of scurfin can inhibit the activation of the transcription factor NF-kB in 293 cells (Betelli et al, Proc Natl Acad Sci USA. 2005 102:5138-43). Based on this work, the effect of the addition of peptide P60 (SEQ ID NO: 1) to a culture of 293 cells transfected with a plasmid expressing the foxp3 gene, kindly provided by Dr Oukka and previously described (Betelli et al, Proc Natl Acad Sci USA. 2005 102:5138-43) and to a culture of 293 cells transfected with a control plasmid together with a plasmid expressing luciferase under a promoter inducible by NF-κB (Ref 631904, pNF-kB-Luc, Clontech) has been studied. The 293 cells were transfected by means of using lipofectamine with plasmid pNF-kB-Luc expressing luciferase under a promotor inducible by transcription factor NF-kB, in the presence or absence of plasmid pcDNA, pcDNA-Foxp3 and peptide P60 (SEQ ID NO: 1) (100 μM). After 24 hours of culture, the cells were harvested and the luciferase activity in the cell extracts was measured by means of using a suitable kit (Promega, Maddison, USA) and the luminometer (Orion Microplate luminometer, Berthold detection systems, Germany).
# human Treg lymphocytes [7] = assay: IFN-γ production by human CD4 effector T lymphocytes stimulated with anti-CD3/CD28 microspheres with human Treg lymphocytes; type: cell-based; settings: 100 μM, anti-CD3/CD28 stimulus, 48 hours, ELISA
# Protocol: This assay is based on the measurement of the production of IFN-γ in a culture of 10^5 human CD4 effector T lymphocytes cultured with microspheres containing anti-CD3 and anti-CD28 antibodies adhered to their surface (Dynabeads® CD3/CD28; Ref 111.31, Dynal), in the presence or absence of 2×10^4 human Treg lymphocytes (purified as indicated above). This assay was carried out in the presence or absence of peptide P60 (SEQ ID NO: 1) to assess its inhibitory effect of Treg lymphocytes. After 48 hours of culture, the presence of IFN-γ in the culture supernatants was measured by means of a commercial ELISA (Ref 555138, Pharmingen).
substance,measurement,setting,value
"AH1: synthetic peptide used as vaccine antigen, contains a cytotoxic T determinant for the CT26 line (SPSYVYHQF) [reference compound]",protection from tumor,CT26 colon cancer line; mice immunized with AH1 alone,0%
"RDFQSFRKMWPFF [T(1-13), truncated form of P60, amino acids 1-13 of P60]",capacity to bind to scurfin (SPR signal),scurfin,does not destroy the capacity of the peptide to bind to scurfin
"RDFQSFRKMWPFFA [T(1-14), truncated form of P60, amino acids 1-14 of P60]",capacity to bind to scurfin (SPR signal),scurfin,does not destroy the capacity of the peptide to bind to scurfin
RDFQSFRKMWPFFAM [P60],protection from tumor,"CT26 colon cancer line; mice immunized with peptide AH1 and treated with P60 50 nm/mouse i.p. days 0, 2, 4, 6, 8, 10",82%
same,mice that developed a palpable tumor,CT26 colon cancer line; of the 11 mice immunized with peptide AH1 and treated with P60,2
same,protection from tumor,"CT26 colon cancer line; peptide P60 alone, non-immunized mice",10%
same,restoration of the production of IFN-γ due to the MLR inhibited by Karpas 299 cells,"[1]; 100 μM, 48 hours, ELISA",capable of partly recovering the production of IFN-γ
same,inhibitory activity on the immunosuppressive action of Treg cells among the 25 peptides selected,[1]; several in vitro assays (Example 2),highest inhibitory activity
same,inhibition of the immunosuppressive effect of Treg lymphocytes on production of IFN-γ in response to anti-CD3,murine Treg lymphocytes [2],capable of inhibiting the immunosuppressive effect of Treg lymphocytes on the production of IFN-γ
same,inhibition of the immunosuppressive effect of Treg lymphocytes on proliferation of effector cells in response to an MLR,murine Treg lymphocytes [3],capable of inhibiting the immunosuppressive effect of Treg lymphocytes on the proliferation of effector cells
same,inhibition of the immunosuppressive effect of Treg lymphocytes on production of IFN-γ by antigen-specific effector cells,murine Treg lymphocytes [4],capable of inhibiting the immunosuppressive effect of Treg lymphocytes on the production of IFN-γ
same,capacity to bind to scurfin (SPR signal),scurfin,positive signal
same,restoration of the MLR (cell proliferation) inhibited by human Treg lymphocytes,human Treg lymphocytes [5],capable of partly restoring the MLR
same,expression of luciferase (NF-κB reporter) inhibited by scurfin,[6],restores the expression of luciferase
same,restoration of the production of IFN-γ inhibited by human Treg lymphocytes,human Treg lymphocytes [7],partly restoring the production of IFN-γ
"T(2-15): truncated form of P60, amino acids 2-15 of P60 (DFQSFRKMWPFFAM)",capacity to bind to scurfin (SPR signal),scurfin,inhibits the capacity of the peptide to bind to scurfin
